Test results reported in ChEMBL document CHEMBL4265986, “Structural exploration of cinnamate-based phosphonic acids as inhibitors of bacterial ureases” (Eur J Med Chem, 2018).
pIC50, pKi: −log10 of the molar value.

Experiments:
[1] = Inhibition of Sporosarcina pasteurii CCM 2056 urease using urea as substrate after 10 mins by indophenol blue detection based phenol-hypochlorite method
[2] = Inhibition of Sporosarcina pasteurii CCM 2056 urease using urea as substrate preincubated for 2 hrs by indophenol blue detection based phenol-hypochlorite method
[3] = Inhibition of Proteus mirabilis PCM543 urease using urea as substrate preincubated for 2 hrs by indophenol blue detection based phenol-hypochlorite method
[4] = test system: Proteus mirabilis; assay: Antimicrobial activity against Proteus mirabilis PCM543 assessed as inhibition of microbial proliferation preincubated for 2 hrs by MTT assay; type: functional
[5] = Mixed type inhibition of Sporosarcina pasteurii CCM 2056 urease using urea as substrate preincubated for 2 hrs by indophenol blue detection based phenol-hypochlorite method
[6] = test system: Sporosarcina pasteurii; assay: Slow binding inhibition of Sporosarcina pasteurii CCM 2056 urease assessed as dissociation rate constant using urea as substrate after 120 mins by indophenol blue detection based phenol-hypochlorite method
[7] = test system: Sporosarcina pasteurii; assay: Slow binding inhibition of Sporosarcina pasteurii CCM 2056 urease assessed as residence time using urea as substrate after 120 mins by indophenol blue detection based phenol-hypochlorite method

Compound	pIC50 [1]	pIC50 [2]	pIC50 [3]	LC50 [4]	pKi [5]	K [6]	TIME [7]
COC(=O)/C(=C/c1ccc(F)cc1)CCCCP(=O)(O)O	3.79	3.89	3.20	1060 µM	3.94	–	–
O=C(O)/C(=C/c1ccccc1)CCCCP(=O)(O)O	5.31	5.42	4.49	97.6 µM	5.45	–	–
O=C(O)/C(=C/c1ccc(Cl)cc1)CCCP(=O)(O)O	5.60	5.79	4.73	122 µM	5.84	–	–
COc1ccc(/C=C(\CCCCP(=O)(O)O)C(=O)O)cc1	4.78	4.84	3.94	28.6 µM	5.03	–	–
COC(=O)/C(=C/c1ccc(OC)cc1)CCCCP(=O)(O)O	4.61	4.65	3.79	160 µM	4.67	–	–
COc1ccc(/C=C(\CCCP(=O)(O)O)C(=O)O)cc1	5.00	5.30	4.40	65.2 µM	5.47	–	–
COC(=O)/C(=C/c1ccc(OC)cc1)CCCP(=O)(O)O	4.45	4.97	4.12	236 µM	5.22	0.00244 s⁻¹	0.114 h
Cc1ccc(/C=C(\CCCCP(=O)(O)O)C(=O)O)cc1	5.03	5.07	4.28	49.8 µM	5.14	–	–
O=C(O)/C(=C/c1ccccc1)CCCP(=O)(O)O	5.51	6.13	4.96	135 µM	6.29	0.000682 s⁻¹	0.407 h
COC(=O)/C(=C/c1ccccc1)CCCP(=O)(O)O	3.35	3.48	2.80	556 µM	3.54	–	–
COC(=O)/C(=C/c1ccc(Cl)cc1)CCCP(=O)(O)O	3.96	4.30	3.28	89.6 µM	4.37	–	–
O=C(O)/C(=C/c1ccc(F)cc1)CCCCP(=O)(O)O	5.00	5.54	4.85	192 µM	5.59	0.00135 s⁻¹	0.206 h
COC(=O)/C(=C/c1ccccc1)CCCCP(=O)(O)O	4.26	4.27	3.32	469 µM	4.30	–	–
COC(=O)/C(=C/c1ccc(Cl)cc1)CCCCP(=O)(O)O	4.23	5.20	4.56	638 µM	5.33	0.00206 s⁻¹	0.135 h
COC(=O)/C(=C/c1ccc(C)cc1)CCCCP(=O)(O)O	3.53	3.58	2.81	659 µM	3.66	–	–
O=C(O)/C(=C/c1ccc(F)cc1)CCCP(=O)(O)O	5.31	5.42	4.42	121 µM	5.74	–	–
Cc1ccc(/C=C(\CCCP(=O)(O)O)C(=O)O)cc1	4.52	4.61	3.81	139 µM	4.71	–	–
COC(=O)/C(=C/c1ccc(C)cc1)CCCP(=O)(O)O	3.58	3.61	2.84	292 µM	3.64	–	–
COC(=O)/C(=C/c1ccc(F)cc1)CCCP(=O)(O)O	3.66	3.98	3.13	215 µM	4.06	–	–
O=C(O)/C(=C/c1ccc(Cl)cc1)CCCCP(=O)(O)O	5.23	5.63	4.65	435 µM	5.76	–	–
